Experimental data from patent US20260125371A1, “METHOD FOR INHIBITING CLOSTRIDIOIDES DIFFICILE SPORE GERMINATION” (UNIVERSITY OF NOTRE DAME DU LAC, priority 2022, published 2026).
Values after ≈ are worked out from the molar mass of the structure shown. Like-named read-outs stand apart in the source and are kept apart here.

How the values were obtained:
Gram-negative bacteria = conditions: organisms of Table 2; data from earlier publication; cited from earlier work
E. coli ATCC25922 = conditions: cited from earlier work
[1] = test system: B. licheniformis ATCC 12759; conditions: cited from earlier work
[2] = test system: S. haemolyticus ATCC 29970; conditions: cited from earlier work
S. oralis ATCC 9811 = conditions: cited from earlier work
Veillonella sp. HM-49 = conditions: cited from earlier work
THP-1 cells = assay: Lactate dehydrogenase (LDH) cytotoxicity assay; assay type: cell-based, human; conditions: Homo sapiens, THP-1, 24 h, read-out: LDH (IC50)
K. pneumoniae ATCC700603 = conditions: cited from earlier work
[3] = test system: Lactobacillus gasseri HM-644; conditions: cited from earlier work
[4] = test system: Fusobacterium nucleatum HM-992; conditions: cited from earlier work
B. cereus ATCC 13061 = conditions: cited from earlier work
C. difficile strains = conditions: cited from earlier work
P. aeruginosa ATCC27853 = conditions: cited from earlier work
[5] = C. difficile strains of Table 4

## Oc1ccc(-c2nc(-c3ccc(OC4CCCC4)cc3)no2)cc1 [Compound 2]
Gram-negative bacteria
  activity against Gram-negative organisms: no activity
E. coli ATCC25922
  MIC: >128 µg/mL
[1]
  MIC: 4 µg/mL (≈ 12.4 µM)
[2]
  MIC: 2 µg/mL (≈ 6.2 µM)
S. oralis ATCC 9811
  MIC: >128 µg/mL
Veillonella sp. HM-49
  MIC: >128 µg/mL
THP-1 cells
  IC50: 18 ± 1 µg/mL (≈ 55.8 µM)
K. pneumoniae ATCC700603
  MIC: >128 µg/mL
[3]
  MIC: >128 µg/mL
[4]
  MIC: 2 µg/mL (≈ 6.2 µM)
B. cereus ATCC 13061
  MIC: 2 µg/mL (≈ 6.2 µM)
C. difficile strains; 101 C. difficile strains
  IMIC50 (101 strains): 2 µg/mL
  MIC90 (101 strains): 4 µg/mL (≈ 12.4 µM)
C. difficile strains; C. difficile 23828, resistant to FDX
  MIC: 4 µg/mL (≈ 12.4 µM)
C. difficile strains; C. difficile 24531, resistant to VAN
  MIC: 4 µg/mL (≈ 12.4 µM)
C. difficile strains; C. difficile 26675, resistant to MTZ
  MIC: 4 µg/mL (≈ 12.4 µM)
C. difficile strains; C. difficile BAA-1803
  MIC: 2 µg/mL (≈ 6.2 µM)
C. difficile strains; C. difficile BAA-1870
  MIC: 2 µg/mL (≈ 6.2 µM)
C. difficile strains; C. difficile NR49292
  MIC: 2 µg/mL (≈ 6.2 µM)
C. difficile strains; C. difficile NR49294
  MIC: 2 µg/mL (≈ 6.2 µM)
C. difficile strains; C. difficile NR49302
  MIC: 2 µg/mL (≈ 6.2 µM)
C. difficile strains; C. difficile NR49305
  MIC: 2 µg/mL (≈ 6.2 µM)
C. difficile strains; C. difficile NR49310
  MIC: 4 µg/mL (≈ 12.4 µM)
C. difficile strains; C. difficile NR49318
  MIC: 4 µg/mL (≈ 12.4 µM)
C. difficile strains; [5]
  MIC50: 2 µg/mL (≈ 6.2 µM)
  MIC90: 4 µg/mL (≈ 12.4 µM)
C. difficile strains; C. difficile, reported earlier
  MIC90: 4 µg/mL (≈ 12.4 µM)
C. difficile strains; strain ATCC43598
  MIC: 2 µg/mL (≈ 6.2 µM)
C. difficile strains; strain BAA-1801
  MIC: 2 µg/mL (≈ 6.2 µM)
C. difficile strains; strain BAA-1803
  MIC: 2 µg/mL (≈ 6.2 µM)
C. difficile strains; strain BAA-1804
  MIC: 2 µg/mL (≈ 6.2 µM)
C. difficile strains; strain BAA-1812
  MIC: 2 µg/mL (≈ 6.2 µM)
C. difficile strains; strain BAA-1814
  MIC: 2 µg/mL (≈ 6.2 µM)
C. difficile strains; strain BAA-1870
  MIC: 2 µg/mL (≈ 6.2 µM)
C. difficile strains; strain HM-88
  MIC: 4 µg/mL (≈ 12.4 µM)
C. difficile strains; strain HM-89
  MIC: 4 µg/mL (≈ 12.4 µM)
C. difficile strains; strain HM-745
  MIC: 4 µg/mL (≈ 12.4 µM)
C. difficile strains; strain HM-746
  MIC: 4 µg/mL (≈ 12.4 µM)
C. difficile strains; strain HM-747
  MIC: 4 µg/mL (≈ 12.4 µM)
C. difficile strains; strain NR49292
  MIC: 2 µg/mL (≈ 6.2 µM)
C. difficile strains; strain NR49294
  MIC: 2 µg/mL (≈ 6.2 µM)
C. difficile strains; strain NR49302
  MIC: 2 µg/mL (≈ 6.2 µM)
C. difficile strains; strain NR49305
  MIC: 2 µg/mL (≈ 6.2 µM)
C. difficile strains; strain NR49310
  MIC: 4 µg/mL (≈ 12.4 µM)
C. difficile strains; strain NR49318
  MIC: 4 µg/mL (≈ 12.4 µM)
C. difficile strains; strain NR-13427
  MIC: 2 µg/mL (≈ 6.2 µM)
C. difficile strains; strain NR-13428
  MIC: 4 µg/mL (≈ 12.4 µM)
C. difficile strains; strain NR-13429
  MIC: 4 µg/mL (≈ 12.4 µM)
C. difficile strains; strain NR-13430
  MIC: 2 µg/mL (≈ 6.2 µM)
C. difficile strains; strain NR-13431
  MIC: 2 µg/mL (≈ 6.2 µM)
C. difficile strains; strain NR-13433
  MIC: 4 µg/mL (≈ 12.4 µM)
C. difficile strains; strain NR-13434
  MIC: 2 µg/mL (≈ 6.2 µM)
C. difficile strains; strain NR-13435
  MIC: 4 µg/mL (≈ 12.4 µM)
C. difficile strains; strain NR-13436
  MIC: 4 µg/mL (≈ 12.4 µM)
C. difficile strains; strain NR-13437
  MIC: 4 µg/mL (≈ 12.4 µM)
C. difficile strains; strain NR-13438
  MIC: 2 µg/mL (≈ 6.2 µM)
C. difficile strains; strain NR-13553
  MIC: 2 µg/mL (≈ 6.2 µM)
C. difficile strains; strain NR-32882
  MIC: 2 µg/mL (≈ 6.2 µM)
C. difficile strains; strain NR-32883
  MIC: 2 µg/mL (≈ 6.2 µM)
C. difficile strains; strain NR-32884
  MIC: 2 µg/mL (≈ 6.2 µM)
C. difficile strains; strain NR-32885
  MIC: 4 µg/mL (≈ 12.4 µM)
C. difficile strains; strain NR-32886
  MIC: 2 µg/mL (≈ 6.2 µM)
C. difficile strains; strain NR-32887
  MIC: 4 µg/mL (≈ 12.4 µM)
C. difficile strains; strain NR-32888
  MIC: 4 µg/mL (≈ 12.4 µM)
C. difficile strains; strain NR-32889
  MIC: 4 µg/mL (≈ 12.4 µM)
C. difficile strains; strain NR-32890
  MIC: 2 µg/mL (≈ 6.2 µM)
C. difficile strains; strain NR-32891
  MIC: 4 µg/mL (≈ 12.4 µM)
C. difficile strains; strain NR-32892
  MIC: 4 µg/mL (≈ 12.4 µM)
C. difficile strains; strain NR-32895
  MIC: 2 µg/mL (≈ 6.2 µM)
C. difficile strains; strain NR-32896
  MIC: 2 µg/mL (≈ 6.2 µM)
C. difficile strains; strain NR-32897
  MIC: 2 µg/mL (≈ 6.2 µM)
C. difficile strains; strain NR-32900
  MIC: 4 µg/mL (≈ 12.4 µM)
C. difficile strains; strain NR-32903
  MIC: 2 µg/mL (≈ 6.2 µM)
C. difficile strains; strain NR-32904
  MIC: 2 µg/mL (≈ 6.2 µM)
C. difficile strains; strain NR-49277
  MIC: 2 µg/mL (≈ 6.2 µM)
C. difficile strains; strain NR-49278
  MIC: 2 µg/mL (≈ 6.2 µM)
C. difficile strains; strain NR-49279
  MIC: 2 µg/mL (≈ 6.2 µM)
C. difficile strains; strain NR-49280
  MIC: 4 µg/mL (≈ 12.4 µM)
C. difficile strains; strain NR-49281
  MIC: 4 µg/mL (≈ 12.4 µM)
C. difficile strains; strain NR-49282
  MIC: 4 µg/mL (≈ 12.4 µM)
C. difficile strains; strain NR-49283
  MIC: 4 µg/mL (≈ 12.4 µM)
C. difficile strains; strain NR-49284
  MIC: 4 µg/mL (≈ 12.4 µM)
C. difficile strains; strain NR-49285
  MIC: 2 µg/mL (≈ 6.2 µM)
C. difficile strains; strain NR-49286
  MIC: 2 µg/mL (≈ 6.2 µM)
C. difficile strains; strain NR-49287
  MIC: 2 µg/mL (≈ 6.2 µM)
C. difficile strains; strain NR-49288
  MIC: 2 µg/mL (≈ 6.2 µM)
C. difficile strains; strain NR-49289
  MIC: 2 µg/mL (≈ 6.2 µM)
C. difficile strains; strain NR-49290
  MIC: 4 µg/mL (≈ 12.4 µM)
C. difficile strains; strain NR-49291
  MIC: 2 µg/mL (≈ 6.2 µM)
C. difficile strains; strain NR-49293
  MIC: 2 µg/mL (≈ 6.2 µM)
C. difficile strains; strain NR-49295
  MIC: 4 µg/mL (≈ 12.4 µM)
C. difficile strains; strain NR-49296
  MIC: 4 µg/mL (≈ 12.4 µM)
C. difficile strains; strain NR-49297
  MIC: 2 µg/mL (≈ 6.2 µM)
C. difficile strains; strain NR-49298
  MIC: 4 µg/mL (≈ 12.4 µM)
C. difficile strains; strain NR-49299
  MIC: 2 µg/mL (≈ 6.2 µM)
C. difficile strains; strain NR-49300
  MIC: 2 µg/mL (≈ 6.2 µM)
C. difficile strains; strain NR-49301
  MIC: 2 µg/mL (≈ 6.2 µM)
C. difficile strains; strain NR-49303
  MIC: 2 µg/mL (≈ 6.2 µM)
C. difficile strains; strain NR-49304
  MIC: 4 µg/mL (≈ 12.4 µM)
C. difficile strains; strain NR-49306
  MIC: 4 µg/mL (≈ 12.4 µM)
C. difficile strains; strain NR-49307
  MIC: 4 µg/mL (≈ 12.4 µM)
C. difficile strains; strain NR-49308
  MIC: 2 µg/mL (≈ 6.2 µM)
C. difficile strains; strain NR-49309
  MIC: 2 µg/mL (≈ 6.2 µM)
C. difficile strains; strain NR-49311
  MIC: 2 µg/mL (≈ 6.2 µM)
C. difficile strains; strain NR-49312
  MIC: 4 µg/mL (≈ 12.4 µM)
C. difficile strains; strain NR-49313
  MIC: 2 µg/mL (≈ 6.2 µM)
C. difficile strains; strain NR-49314
  MIC: 2 µg/mL (≈ 6.2 µM)
C. difficile strains; strain NR-49315
  MIC: 4 µg/mL (≈ 12.4 µM)
C. difficile strains; strain NR-49316
  MIC: 4 µg/mL (≈ 12.4 µM)
C. difficile strains; strain NR-49317
  MIC: 4 µg/mL (≈ 12.4 µM)
C. difficile strains; strain NR-49319
  MIC: 4 µg/mL (≈ 12.4 µM)
C. difficile strains; strain NR-49320
  MIC: 2 µg/mL (≈ 6.2 µM)
C. difficile strains; strain NR-49321
  MIC: 4 µg/mL (≈ 12.4 µM)
C. difficile strains; strain NR-49323
  MIC: 4 µg/mL (≈ 12.4 µM)
C. difficile strains; strain NR-49324
  MIC: 4 µg/mL (≈ 12.4 µM)
C. difficile strains; strain NR-49325
  MIC: 4 µg/mL (≈ 12.4 µM)
C. difficile strains; strain NR-49326
  MIC: 2 µg/mL (≈ 6.2 µM)
C. difficile strains; strain NR-49327
  MIC: 2 µg/mL (≈ 6.2 µM)
C. difficile strains; strain NR-49328
  MIC: 2 µg/mL (≈ 6.2 µM)
C. difficile strains; strain NR-49329
  MIC: 2 µg/mL (≈ 6.2 µM)
C. difficile strains; strain RMA23691
  MIC: 4 µg/mL (≈ 12.4 µM)
C. difficile strains; strain RMA23828
  MIC: 4 µg/mL (≈ 12.4 µM)
C. difficile strains; strain RMA24531
  MIC: 4 µg/mL (≈ 12.4 µM)
C. difficile strains; strain RMA24923
  MIC: 4 µg/mL (≈ 12.4 µM)
C. difficile strains; strain RMA26675
  MIC: 4 µg/mL (≈ 12.4 µM)
C. difficile strains; strain RMA27081
  MIC: 4 µg/mL (≈ 12.4 µM)
C. difficile strains; strain RMA27173
  MIC: 4 µg/mL (≈ 12.4 µM)
P. aeruginosa ATCC27853
  MIC: >128 µg/mL
